Results on 4 compounds are retold here after patent EP4635969A1, “NOVEL GLUCOCORTICOID, METHOD FOR PREPARING SAME, AND USE THEREOF” (Tianjin Pharmaceutical Biotechnology Co., Ltd., priority 2022, dated 2024).

Data set [1] concerns inflammatory bowel disease model rats. Put plainly: Inflammatory bowel disease experiment (TNBS model): macroscopic injury score of the colon. In kind it is in vivo. The settings on record: colon, day 5 after TNBS; 2 mg/kg once a day (compounds intraintestinally, dexamethasone by gavage). As to the method:
Pharmacological Example 7: Pharmacodynamic Experiment on Inflammatory Bowel Disease in Rats
Test samples: The jet-milled compounds 23 and 34 were accurately weighed and prepared as 2 mg/mL clear solutions using anhydrous ethanol, respectively. The solutions were then diluted to 0.2 mg/mL with double-distilled water as the test samples, and stored at room temperature protected from light until use.
Animals in Groups 2 to 5 were subjected to trinitrobenzene sulfonic acid (TNBS) modeling as follows: A 5% TNBS aqueous solution was adjusted to 20 mg/mL TNBS (50% ethanol solution) with alcohol and water. After fasting for 24 h, the rats were anesthetized using an inhalation anesthesia machine. A silicone hose was inserted approximately 8 cm into the anus, and then TNBS was injected at a dose of 50 mg/kg. After injection, the rats were placed vertically for 1 min to prevent the backflow of TNBS solution. Then, the rats were placed into their cages for observation until the animals recovered.
Drug administration started one day before modeling, with one dose administered 1 hour before modeling and then once a day for 5 consecutive days. […] Table 14. Animal grouping and drug administration dosages
The experiment ended on day 5 after TNBS modeling. After isoflurane anesthesia, blood was collected from the hearts, and the rats were euthanized. The abdominal cavity was rapidly opened, and the macroscopic injury scoring of the colon in rats was performed based on the adhesion, obstruction, thickening of the colonic wall, colonic congestion, and necrosis in the colon area. After clearing the colonic contents, the colonic samples were longitudinally incised. The proximal 2/3 of the colon was excised, prepared into Swiss rolls, and stored in 4% neutral buffered formalin for histopathological analysis. Tissues were trimmed, dehydrated, paraffin-embedded, and sectioned (approximately 5 µm thickness), stained with hematoxylin-eosin (HE), and observed for pathological changes. Pathologists performed blind scoring of colonic lesions.
Quantitative indices were first subjected to Bartlett's test for homogeneity of variance. When the variance was homogeneous (P > 0.05), one-way analysis of variance (ANOVA) was used for a statistical test; if there was statistical significance (P ≤ 0.05), Dunnett's t-test (Dunnett method) was used to compare intergroup differences; if there was no statistical significance (P > 0.05), the statistical analysis was concluded. When the variance was heterogeneous (P ≤ 0.05), Kruskal-Wallis H rank-sum test (K-W method) was used for statistical analysis: if there was statistical significance (P ≤ 0.05), Mann-Whitney U test (M-W method) was further performed to compare intergroup differences; if there was no statistical significance (P > 0.05), the statistical analysis was concluded.

Data set [2] concerns the target T1, mineralocorticoid receptor (MR) (Homo sapiens, UniProt P08235).
T1 sequence (P08235 726-984): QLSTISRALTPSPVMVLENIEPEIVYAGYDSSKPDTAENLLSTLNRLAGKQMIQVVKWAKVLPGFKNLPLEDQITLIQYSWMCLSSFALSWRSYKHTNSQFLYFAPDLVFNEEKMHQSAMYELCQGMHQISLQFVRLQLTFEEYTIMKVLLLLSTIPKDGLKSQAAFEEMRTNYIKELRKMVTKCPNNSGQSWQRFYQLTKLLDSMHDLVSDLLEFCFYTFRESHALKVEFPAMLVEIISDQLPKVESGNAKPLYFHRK
Briefly: Assay for agonist activity on mineralocorticoid receptor (luciferase reporter, HEK293 cells transfected with pBIND-MR plasmid). In kind it is cell-based. Particulars: EC50 of agonist activity, HEK293 reporter cells, top concentration 50 µM; read-out: Nuclear receptor enzyme activity (nM) MR. In short, it runs like this:
(§1)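 HEK293 cells transiently transfected with pBIND-MR or pBIND-PR, seeded in phenol red-free DMEM with 5% charcoal-stripped serum. Compounds tested as 12-point 4-fold dilutions from 50 µM in duplicate, 0.1% DMSO blank. Luciferase luminescence read, EC50 by nonlinear fit.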

Data set [3] has as its target T2, progesterone receptor (PR) (Homo sapiens, UniProt P06401).
T2 sequence (P06401 678-933): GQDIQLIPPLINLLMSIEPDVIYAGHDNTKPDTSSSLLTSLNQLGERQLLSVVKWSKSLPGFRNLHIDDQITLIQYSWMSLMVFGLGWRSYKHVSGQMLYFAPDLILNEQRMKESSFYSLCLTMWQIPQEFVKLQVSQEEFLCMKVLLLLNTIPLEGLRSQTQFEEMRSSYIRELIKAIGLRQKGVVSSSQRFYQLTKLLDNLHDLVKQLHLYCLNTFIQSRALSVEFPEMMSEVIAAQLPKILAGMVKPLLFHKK
Put plainly: Assay for agonist activity on progesterone receptor (luciferase reporter, HEK293 cells transfected with pBIND-PR plasmid). It counts as cell-based. Particulars: EC50 of agonist activity, HEK293 reporter cells, top concentration 50 µM; read-out: Nuclear receptor enzyme activity (nM) PR. In short, it runs like this: as §1

In the next data set the test system is asthma model mice. Briefly: Anti-asthma pharmacodynamic experiment: airway hyperresponsiveness (Penh) after methacholine challenge. In kind it is in vivo, female BALB/c mice. The settings on record: for Penh values in mice, Methacholine concentration (mg/ml) 0 / Penh values in mice, Methacholine concentration (mg/ml) 6.25 / Penh values in mice, Methacholine concentration (mg/ml) 12.5: 0.3 mg/mL, 50 µL intratracheally once daily for 3 days; for Penh values in mice, Methacholine concentration (mg/ml) 0: methacholine 0 mg/ml; for Penh values in mice, Methacholine concentration (mg/ml) 6.25: methacholine 6.25 mg/ml; for Penh values in mice, Methacholine concentration (mg/ml) 12.5: methacholine 12.5 mg/ml.

Data set [4] concerns inflammatory cytokines IL-6 and IL-12. Briefly: Anti-asthma pharmacodynamic experiment: inflammatory cytokines in bronchoalveolar lavage fluid (ELISA). It counts as in vivo, female BALB/c mice. Particulars: for IL-6 / IL-12: bronchoalveolar lavage fluid, 0.3 mg/mL, 50 µL intratracheally once daily for 3 days. Background: ELISA stands for enzyme-linked immunosorbent assay.
Method: Pharmacological Example 4: Pharmacodynamic Experiment on Anti-Asthma
The suspensions were stored at room temperature protected from light until use.
Positive control drug: Budesonide Suspension for Inhalation (specification: 2 mL: 1 mg; AstraZeneca Inc.; Lot No. : 327392) was diluted with injection-grade sodium chloride solution to 0.3 mg/ml as the positive control drug, and stored at room temperature protected from light until use.
Sixty female BALB/c mice underwent a one-week adaptive feeding period. Ten mice were randomly selected as the blank control group, while 50 mice were selected to establish asthma models.
From days 21 to 23 after sensitization, the mice in the model group and drug administration group were exposed to a 30-minute aerosol challenge with 5% OVA, while the mice in the blank control group were exposed to normal saline aerosol for the same duration.
At the end of airway hyperresponsiveness testing in mice, the mice were euthanized by cervical dislocation and fixed on a dissection tray. The abdomens and thoracic cavities of the mice were opened, and the skin and excess tissues of the neck were excised to expose the trachea of the mice. A small incision was made transversely on the trachea with a small scissors. A pre-treated 1 mL syringe needle was inserted and fastened with surgical thread. A 1 mL syringe was used to slowly inject 0.5 mL of pre-chilled phosphate-buffered saline (PBS) into the lungs of the mice, followed by slow aspiration. Each mouse was lavaged once, and a total of approximately 0.4 ml of lavage fluid was collected. The bronchoalveolar lavage fluid was centrifuged at 3000 rpm for 5 min. After centrifugation, the supernatant was aliquoted, and the levels of inflammatory cytokines IL-6 and IL-12 in the bronchoalveolar lavage fluid were determined using ELISA kits.
(§2) Statistical analysis was performed using SPSS software. Measurement data were expressed as mean ± standard deviation. One-way ANOVA was used for intergroup comparisons. For data with homogeneous variance, LSD test was used; for data with heterogeneous variance, Dunnett-t test was used. A value of P < 0.05 was considered statistically significant.
A further data set deals with uveitis model rats. Put plainly: Anti-uveitis pharmacodynamic experiment (LPS model): ocular pathological score. It counts as in vivo, male SD rats.
For data set [5], the system named is dry eye syndrome model New Zealand rabbits. Put plainly: Dry eye syndrome experiment (benzalkonium chloride model): tear secretion test with phenol red cotton threads. In kind it is in vivo, male New Zealand White rabbits.
Method: (§3) Positive control drug: Fluorometholone Eye Drops (specification: 5 mL/5 mg; Santen Pharmaceutical (CHINA) Co., Ltd.; Lot No.: 1FM6625) was used as the positive control drug and stored at room temperature protected from light until use.
(§4) Thirty male New Zealand White rabbits (conventional grade) were prepared. Six rabbits were randomly selected as the blank control group, and the remaining animals were administered 0.1% benzalkonium chloride to the left eye twice daily (morning and evening) , 10 µL/animal each time. On day 6 of modeling, tear secretion was measured using phenol red cotton threads to determine whether the model was successfully established. […] During the administration, all animals except the blank control group were administered 10 µL of 0.1% benzalkonium chloride to the left eye once daily to maintain dry eye symptoms..
• Test time: D3, D7, D15; • Test animals: All animals were tested before grouping; all enrolled surviving animals were tested after administration; • Test method: Tear secretion was measured using phenol red cotton threads. The tear secretion test paper was folded and placed at the middle and outer 1/3 of the rabbit palpebral conjunctival sac for 1 min. The test paper was then removed, observed, and recorded for its wetting length. The test was repeated 3 times, and the values were averaged.
(§5) The normality and homogeneity of variance were tested by Levene's test. If there was no statistical significance (P > 0.05), one-way analysis of variance (ANOVA) was used for statistical analysis. If ANOVA was statistically significant (P ≤ 0.05), LSD test (parametric method) was used for comparative analysis. If the variance was heterogeneous (P ≤ 0.05), Kruskal-Wallis test was used. If the Kruskal-Wallis test was statistically significant (P ≤ 0.05), Dunnett's test (nonparametric method) was used for comparative analysis.
Data set [6] shares this test system. Briefly: Dry eye syndrome experiment (benzalkonium chloride model): tear film break-up time. In kind it is in vivo, male New Zealand White rabbits.
Method: as §3, §4
• Test time: D3, D7, D15; • Test animals: All animals were tested before grouping; all enrolled surviving animals were tested after administration; • Test method: 1% Fluorescein sodium was dropped onto the inner side of the rabbit's lower eyelid, 10 µL/animal. The rabbit's eyes were closed and gently massaged to evenly distribute the fluorescein sodium on the eye surface. The rabbit's eyes were then sequentially placed under a slit lamp. The tear film break-up time was observed and recorded as the time from eye opening to the appearance of the first dark spot. If no dark spot appeared, the time was calculated as 60 seconds.
as §5
Data set [7] shares this test system. Put plainly: Dry eye syndrome experiment (benzalkonium chloride model): corneal fluorescein sodium staining. It counts as in vivo, male New Zealand White rabbits.
For data set [8], the system named is intraocular pressure of guinea pigs. Briefly: Adverse reactions of continuous ocular administration: intraocular pressure. It counts as in vivo. As to the method: Pharmacological Example 9: Experiment on Adverse Reactions of Continuous Ocular Administration in Guinea Pigs
Test samples: Compounds 17 and 23 were prepared as 5 mg/5 mL ophthalmic suspensions with reference to the formulation of Fluorometholone Eye Drops, and stored at room temperature protected from light until use.
Positive control drug: Fluorometholone Eye Drops (specification: 5 mL/5 mg; Santen Pharmaceutical (CHINA) Co., Ltd.; Lot No.: 1FM6545), Loteprednol Etabonate Eye Drops (specification 0.5% (5 mg/mL); Shandong Bausch & Lomb Freda Pharmaceutical Co., Ltd; Lot No. 386521), stored at room temperature protected from light until use.
Animals: 50 guinea pigs, conventional grade, with an equal number of males and females, weighing 300-350 g..
Animal grouping: After 5 days of adaptive feeding, the guinea pigs were randomly divided into 5 groups based on body weight. Group 1 was the blank control group, and 50 µL of normal saline was dropped into the eyes (bilateral) of the guinea pigs. Groups 2 to 5 were the fluorometholone group, loteprednol group, compound 17 group, and compound 23 group, respectively, and the corresponding drugs were dropped into the eyes (bilateral) of the guinea pigs. Table 19. Animal grouping and drug administration dosages for the experiment on adverse reactions of continuous ocular administration in guinea pigs
Intraocular pressure measurement time: The intraocular pressure of animals in each group was measured before administration and on days 7, 14, 21, and 28 post-administration.

[9] abbreviates: D3, 1 mg/mL, 50 µL/eye, 3 times a day for 14 days.
Where [10] appears, read: D7, 1 mg/mL, 50 µL/eye, 3 times a day for 14 days.
Setting [11] is: D15, 1 mg/mL, 50 µL/eye, 3 times a day for 14 days.

Method for uveitis model rats: Pharmacodynamic Experiment on Anti-Uveitis
Positive control drug: Fluorometholone Eye Drops (specification: 5 mL/5 mg; Santen Pharmaceutical (CHINA) Co., Ltd.; Lot No. : J20180068) was used as the positive control drug and stored at room temperature protected from light until use.
Fifty male SD rats underwent a one-week adaptive feeding period. […] Groups 2 to 5 were used to establish rat uveitis models by single subcutaneous injection of 1 mg/kg LPS (Salmonella; Sigma; Lot No. 0000164114) into the plantar tissue of the hindpaw. Salmonella endotoxin was dissolved in normal saline to prepare an injection solution at a concentration of 2 mg/mL, which was injected subcutaneously at 1 mg/kg into the plantar tissue of one paw of the rats. Group 1 was injected with an equal volume of normal saline.
At the end of the experiment, photos of the rats' eyes were taken using a slit-lamp microscope, and the differences in ocular lesions of rats among groups were compared and analyzed.
as §2

`C[C@@H]1C[C@H]2[C@@H]3CCC4=CC(=O)C=C[C@]4(C)[C@@]3(F)[C@@H](O)C[C@]2(C)[C@@]1(O)C(=O)CO` [Dexamethasone, reference compound] showed a Macroscopic injury score in data set [1] of 5.00 ± 0.66.

With `C[C@]12C=CC(=O)C=C1[C@@H](F)C[C@H]1[C@@H]3C[C@H]4OC(c5ccc(CSC6COC(=O)C6)cc5)O[C@@]4(C(=O)CO)[C@@]3(C)C[C@H](O)[C@@]12F` (stereo partly drawn) [Compound 11, (2S,6aS,6bR,7S,8aS,8bS,11aR,12aS,12bS)-2,6b-Difluoro-7-hydroxy-8b-(2-hydroxyacetyl)-6a,8a-dimethyl-10-(4-(((5-oxotetrahydrofuran-3-yl)thio)methyl)phenyl)-1,2,6a,6b,7,8,8a,8b,11a,12,12a, 12b-dodecahydro-4H-naphtho[2',1':4,5]indeno[1,2-d][1,3]dioxol-4-one], the EC50 in [2] was above 50000 nM. The EC50 in data set [3] was above 50000 nM. For the same compound, in the data set with asthma model mice, the “Penh values in mice, Methacholine concentration (mg/ml) 0” value is on record as 1.08 ± 0.18; the “Penh values in mice, Methacholine concentration (mg/ml) 6.25” value was found to be 1.45 ± 0.31; the “Penh values in mice, Methacholine concentration (mg/ml) 12.5” value is 1.92 ± 0.34. Also, the “Effects on airway hyperresponsiveness (Penh values) in mice” value with asthma model mice (compared with the model group) was “significantly decreased the Penh values in mice”. Also, in [4], the “IL-6” value was found to be 16.3 ± 7.9 pg/mL and the “IL-12” value amounted to 11.1 ± 3.7 pg/mL. Also, the “Effects on inflammatory cytokines in bronchoalveolar lavage fluid of mice” value in [4] (compared with the model group) is “extremely significantly decreased the levels of IL-6 and IL-12 in mice”.

Compound `CC(=O)[C@@]1(O)CC[C@H]2[C@@H]3C[C@H](C)C4=CC(=O)C=C[C@]4(C)[C@@]3(F)[C@@H](O)C[C@@]21C` [Fluorometholone, reference compound] returned an Ocular pathological score with uveitis model rats (1 mg/mL, 40 µL/eye, 3 times a day for 2 days) of 7.1 ± 0.7. Also, the “ocular abnormalities / ocular pathological score” value in the data set on uveitis model rats (compared with the model group) was “significantly improved the ocular abnormalities and reduced the ocular pathological score”. Also, the “Wetting length of phenol red cotton threads (mm) D0” value in data set [5] (D0, 1 mg/mL, 50 µL/eye, 3 times a day for 14 days) came to 26.35 ± 5.52 mm. For the same compound, the “Wetting length of phenol red cotton threads (mm) D3” value in data set [5] (setting [9]) was 29.45 ± 5.48' mm. The “Wetting length of phenol red cotton threads (mm) D7” value in [5] (setting [10]) is recorded as 30.41 ± 5.29" mm. Besides, the “Wetting length of phenol red cotton threads (mm) D15” value in data set [5] (setting [11]) worked out at 32.26 ± 3.69 mm. Moreover, the tear secretion entry in [5] (compared with the model group) is listed as “significantly increased the tear secretion on day 15”. The “Tear film break-up time (s) D3” value in data set [6] (setting [9]) worked out at 43.17 ± 14.47 s. Besides, the “Tear film break-up time (s) D7” value in [6] (setting [10]) is 47.33 ± 16.37 s. Besides, the “Tear film break-up time (s) D15” value in [6] (setting [11]) was 51.33 ± 13.44" s. In addition, the “tear film break-up time” value in data set [6] (compared with the model group) is given as “significantly increased the tear film break-up time on day 15”. Also, the “Corneal fluorescein sodium staining score D3” value in data set [7] (setting [9]) is recorded as 1.67 ± 0.82. The “Corneal fluorescein sodium staining score D7” value in data set [7] (setting [10]) was 1.17 ± 0.41. Further, the “Corneal fluorescein sodium staining score D15” value in data set [7] (setting [11]) amounted to 1.0 ± 0. Also, in data set [7] (compared with the model group), the “inflammatory response on the ocular surface / ocular symptoms” value is “significantly inhibited the inflammatory response on the ocular surface on day 15”. In data set [8], the “intraocular pressure after continuous ocular administration” value is on record as “intraocular pressure elevation was detected on day 7”. Besides, the “Intraocular pressure of guinea pigs (mmHg) D0” value in [8] (D0, before administration, 50 µL/eye (compounds and fluorometholone 1 mg/mL, loteprednol 5 mg/mL)) is listed as 14.3 ± 1.5 mmHg. Also, the “Intraocular pressure of guinea pigs (mmHg) D7” value in data set [8] (D7, 50 µL/eye (compounds and fluorometholone 1 mg/mL, loteprednol 5 mg/mL)) was 20.5 ± 3.3 mmHg. Besides, the “Intraocular pressure of guinea pigs (mmHg) D14” value in data set [8] (D14, 50 µL/eye (compounds and fluorometholone 1 mg/mL, loteprednol 5 mg/mL)) turned out to be 21.2 ± 2.1 mmHg. In [8] (D21, 50 µL/eye (compounds and fluorometholone 1 mg/mL, loteprednol 5 mg/mL)), the “Intraocular pressure of guinea pigs (mmHg) D21” value was determined as 23.0 ± 3.1 mmHg. Besides, the “Intraocular pressure of guinea pigs (mmHg) D28” value in [8] (D28, 50 µL/eye (compounds and fluorometholone 1 mg/mL, loteprednol 5 mg/mL)) is reported as 22.5 ± 2.1 mmHg.

For the compound `CCCC1O[C@@H]2C[C@H]3[C@@H]4CCC5=CC(=O)C=C[C@]5(C)[C@H]4[C@@H](O)C[C@]3(C)[C@]2(C(=O)CO)O1` (stereo partly drawn) [Budesonide, reference compound], in the data set with asthma model mice, the “Penh values in mice, Methacholine concentration (mg/ml) 0” value turned out to be 1.12 ± 0.30; the “Penh values in mice, Methacholine concentration (mg/ml) 6.25” value stood at 1.65 ± 0.29; the “Penh values in mice, Methacholine concentration (mg/ml) 12.5” value turned out to be 2.14 ± 0.38. In addition, in [4], the “IL-6” value was determined as 21.5 ± 6.8 pg/mL and the “IL-12” value worked out at 17.5 ± 4.9 pg/mL.
